{"source": "patent US6660864B2", "about": "“Polymorphic forms of 6-[4-(1-cyclohexyl-1H-tetrazol-5-yl)butoxy]-3,4-dihydro-2(1H)-quinolinone” (priority 2001, dated 2003)", "key": {"[1]": {"experiment": "Bioavailability of cilostazol polymorphic form", "assay_type": "in vivo", "settings": "Form A as prepared by the procedures of the '479 patent"}, "[2]": {"experiment": "Aqueous solubility of cilostazol polymorphic form", "assay_type": "physicochemical", "settings": "Form A as prepared by the procedures of the '479 patent"}, "[3]": {"experiment": "Stability of the crystalline form", "assay_type": "physicochemical"}, "[4]": {"experiment": "DSC heating of disturbed/stressed sample: solid state phase transformation to Form A", "assay_type": "physicochemical", "settings": "sample disturbed (scratching/stressed), DSC from 30° C. to approximately 200° C. at 10° C. per minute", "from_the_text": "Characterization of Form A of cilostazol, Form B of cilostazol, and Form C of cilostazol was further completed using DSC thermograms, shown in FIGS. 3, 4, and 5, respectively, with DSC thermograms for combinations of Form A and Form B; Form B and Form C; and Forms A, B, and C are shown in FIGS. 6, 7, and 8 respectively. DSC data were generated using a Mettler-Toledo DSC 821^e (Columbus, Ohio) with a Julabo FT900 intercooler chiller (Julabo Company; Allentown, Pa.). In general, samples were analyzed in a vented, sealed aluminum pan. Because the endothermic peak may vary depending upon the rate of heating and the calibration and precision of the instrument, with the amount of peak variation dependent upon the heating rate used, all thermograms included herein were run under the same, consistent conditions: heating at 10° C. per minute under a nitrogen purge at 40 mL/minute. The resultant sample of Example 1A was disturbed with scratching, which caused the cilostazol sample to undergo a solid state phase transformation at approximately 119° C. followed by an endotherm of melt at approximately 160° C. (Form A) during heating by DSC from 30° C. to approximately 200° C. at 10° C. per minute. When the sample is stressed and reheated (as detailed in Example 2A), the sample undergoes a solid state phase transformation at approximately 147° C. followed by an endotherm of melt at about 160° C. […]"}, "[5]": {"experiment": "Relative solubility suggested by DSC thermogram (lower melting point, crystal packing forces)", "assay_type": "physicochemical", "settings": "suggested by the lower melting point in DSC (FIG. 8)", "from_the_text": "Characterization of Form A of cilostazol, Form B of cilostazol, and Form C of cilostazol was further completed using DSC thermograms, shown in FIGS. 3, 4, and 5, respectively, with DSC thermograms for combinations of Form A and Form B; Form B and Form C; and Forms A, B, and C are shown in FIGS. 6, 7, and 8 respectively. DSC data were generated using a Mettler-Toledo DSC 821^e (Columbus, Ohio) with a Julabo FT900 intercooler chiller (Julabo Company; Allentown, Pa.). In general, samples were analyzed in a vented, sealed aluminum pan. Because the endothermic peak may vary depending upon the rate of heating and the calibration and precision of the instrument, with the amount of peak variation dependent upon the heating rate used, all thermograms included herein were run under the same, consistent conditions: heating at 10° C. per minute under a nitrogen purge at 40 mL/minute.\nFIG. 8 illustrates a DSC thermogram for the combination of Form A, Form B and Form C having a second heating cycle with a maximum temperature of about 110° C. with a holding time of about 30 minutes. The peaks in the third heating cycle show a Form A to Form B to Form C peak area ratio of approximately 8:2:1, respectively, with the relative amount of Form A, Form B and Form C further variable on the heat of enthalpy of each polymorphic form."}}, "data": [{"smiles": "O=C1CCc2cc(OCCCCc3nnnn3C3CCCCC3)ccc2N1", "note": "[Form A, 6-[4-(1-cyclohexyl-1H-tetrazol-5-yl)butoxy]-3,4-dihydro-2(1H)-quinolinone]", "values": [{"measurement": "bioavailability", "setting": "[1]", "value": "low bioavailability"}, {"measurement": "aqueous solubility", "setting": "[2]", "value": "low aqueous solubility"}]}, {"smiles": "O=C1CCc2cc(OCCCCc3nnnn3C3CCCCC3)ccc2N1", "note": "[Form B, 6-[4-(1-cyclohexyl-1H-tetrazol-5-yl)butoxy]-3,4-dihydro-2(1H)-quinolinone]", "values": [{"measurement": "stability of the polymorphic form", "setting": "[3]", "value": "stable"}, {"measurement": "solid state phase transformation temperature (to Form A)", "setting": "[4]; listed as Example 1A", "value": "approximately 119 °C"}, {"measurement": "solubility relative to Form A", "setting": "[5]", "value": "more soluble than Form A"}]}, {"smiles": "O=C1CCc2cc(OCCCCc3nnnn3C3CCCCC3)ccc2N1", "note": "[Form C, 6-[4-(1-cyclohexyl-1H-tetrazol-5-yl)butoxy]-3,4-dihydro-2(1H)-quinolinone]", "values": [{"measurement": "solid state phase transformation temperature (to Form A)", "setting": "[4]; listed as Example 2A", "value": "approximately 147 °C"}]}]}
